Earlier results as cited in patent US12220439B2, “Methods of diagnosing and treating dry eye syndrome and compositions for treating a human eye” (Akrivista LLC, priority 2017, dated 2025).

Columns and labels:
HLA-DR = conditions: dry eye disease biomarker
Pseudomonas aeruginosa = conditions: strains of Pseudomonas aeruginosa
corneal cells = conditions: concentrations from about 0.004% to about 0.02% (w/v)

| Compound | HLA-DR presence on treatment (HLA-DR) | effectiveness against potential contaminants (Pseudomonas aeruginosa) | effect on corneal epithelium (corneal cells) |
| --- | --- | --- | --- |
| C[C@@H]1CCN(C(=O)CC#N)C[C@@H]1N(C)c1ncnc2[nH]ccc12 [tofacitinib] | Presence decreased with CsA |  |  |
| benzalkonium chloride [BAK] |  | not effective | can lead to corneal epithelial separation |
